Each block holds one compound with its values, some of them ahead of it. d = 2'-deoxy (DNA); r = 2'-OH (RNA)
Columns and labels:
[1] = system: rhodamine labeled PCILuc DNA (pDNA); assay: Rhodamine labeled DNA condensation with cationic surfactants (fluorescence quenching), Example 19; type: physicochemical
Method: (§1) PCILuc DNA (pDNA) [Zhang et al. 1997] was modified to a level of 1 rhodamine per 100 bases using Mirus' Label IT® Rhodamine kit (Rhodamine Containing DNA Labeling Reagent, Mirus Corporation). The modified pDNA (10 μg) was mixed with pDNA that was not labeled (90 μg) in water and diluted to a final concentration of 1 μg/μL with water. The modified pDNA/pDNA mixture (5 μg) was diluted with water to a final volume of 500 μL. Different amounts of CTAB were added to the solution and the fluorescence intensity of the solution was measured using a Cary Eclipse Fluorescence Spectrophotometer (ex=555, em=585, Varian, Inc.). Trubetskoy et al have shown that rhodamine labeled pDNA undergoes fluorescence quenching as the pDNA is condensed [Trubetskoy, 1999].
as §1, with “It®” for “IT®”, “dodecylamine hydrochloride” for “CTAB”

[2] = system: luciferase expression (pCI Luc / pCI Ren) in liver of ICR mice; assay: HP tail vein dual luciferase: siRNA delivery (Example 77); type: in vivo; conditions: hydrophobic siRNA
Method: HP Tail Vein Dual Luciferase: siRNA delivery Five complexes were prepared as follows:
Tail vein injections of 1.0 mL per 10 g body weight (˜2.5 ml) were preformed on ICR mice (n=2) using a 30 gauge, 0.5 inch needle. Injections were done manually with injection times of 4-5 sec [Zhang et al. 1999; Liu et al. 1999]. One day after injection, the livers were harvested and homogenized in lysis buffer (0.1% Triton X-100, 0.1 M K-phosphate, 1 mM DTT, pH 7.8). Insoluble material was cleared by centrifugation and 10 μl of the cellular extract or extract diluted 10× was analyzed for luciferase activity as previously reported [Wolffetal 1990].

Compound: CCCCCCCCCCCCCCCC[N+](C)(C)C.[Br-] [CTAB, cetyltrimethylammonium bromide, reference compound]
- surfactant concentration at which the pDNA is condensed ([1]; 5 μg rhodamine pDNA mixture in 500 μL water): 0.33 mM
- Fluor Int ([1]; N/P 0.4, 2 μg CTAB, 0.011 mM CTAB, 5 μg pDNA in 500 μL water, ex=555, em=585): 201.540
- Fluor Int ([1]; N/P 0.7, 4 μg CTAB, 0.022 mM CTAB): 159.277
- Fluor Int ([1]; N/P 1.1, 6 μg CTAB, 0.033 mM CTAB): 85.253
- Fluor Int ([1]; N/P 1.4, 8 μg CTAB, 0.044 mM CTAB): 81.625
- Fluor Int ([1]; N/P 1.8, 10 μg CTAB, 0.055 mM CTAB): 78.471
- Fluor Int ([1]; N/P 2.2, 12 μg CTAB, 0.066 mM CTAB): 74.722
- Fluor Int ([1]; N/P 2.5, 14 μg CTAB, 0.077 mM CTAB): 67.267
- Fluor Int ([1]; N/P 2.9, 16 μg CTAB, 0.088 mM CTAB): 62.799

- Fluor Int ([1]; N/P 0.6, 2 μg NC12, 0.018 mM NC12, 5 μg pDNA in 500 μL water, ex=555, em=585): 183.656
- Fluor Int ([1]; N/P 1.2, 4 μg NC12, 0.036 mM NC12): 106.095
- Fluor Int ([1]; N/P 1.8, 6 μg NC12, 0.054 mM NC12): 95.586
- Fluor Int ([1]; N/P 2.4, 8 μg NC12, 0.072 mM NC12): 86.119
- Fluor Int ([1]; N/P 3.0, 10 μg NC12, 0.090 mM NC12): 77.670
- Fluor Int ([1]; N/P 3.6, 12 μg NC12, 0.108 mM NC12): 68.208
- Fluor Int ([1]; N/P 4.2, 14 μg NC12, 0.126 mM NC12): 62.115
- Fluor Int ([1]; N/P 4.8, 16 μg NC12, 0.144 mM NC12): 60.158
- Fluor Int ([1]; N/P 5.4, 18 μg NC12, 0.162 mM NC12): 53.467
- Fluor Int ([1]; N/P 6.0, 20 μg NC12, 0.180 mM NC12): 46.790
- Fluor Int ([1]; N/P 6.5, 22 μg NC12, 0.198 mM NC12): 43.375
- Fluor Int ([1]; N/P 7.1, 24 μg NC12, 0.216 mM NC12): 45.000
Compound: CCCCCCCCCCCCN.Cl [NC12, dodecylamine hydrochloride]

Compound: GL3-153: siRNA duplex, SEQ ID 12 and its compliment SEQ ID 13, Dharmacon (sense CUUACGCUGAGUACUUCGATT; antisense UCGAAGUACUCAGCGUAAGTT; sugars from the 5' end r19 d2, backbone not given here; listed as Photinus pyralis)
- inhibition of luciferase expression [2]: inhibits luciferase expression

— patent publication US20030235916A1, “Novel methods for the delivery of polynucleotides to cells” (priority 2002, published 2003)
